Test results as given in US12673039B2, “Methods of inducing autophagy using coumarin derivatives and related compounds” (Buck Institute for Research on Aging, priority 2019, dated 2026).

Columns and labels:
human FXR = biological target: T1, human FXR (Homo sapiens, UniProt Q96RI1); test: Human FXR antagonist reporter assay; format: cell-based
T1 construct: purchased Cayman
T1 sequence (Q96RI1 1-486): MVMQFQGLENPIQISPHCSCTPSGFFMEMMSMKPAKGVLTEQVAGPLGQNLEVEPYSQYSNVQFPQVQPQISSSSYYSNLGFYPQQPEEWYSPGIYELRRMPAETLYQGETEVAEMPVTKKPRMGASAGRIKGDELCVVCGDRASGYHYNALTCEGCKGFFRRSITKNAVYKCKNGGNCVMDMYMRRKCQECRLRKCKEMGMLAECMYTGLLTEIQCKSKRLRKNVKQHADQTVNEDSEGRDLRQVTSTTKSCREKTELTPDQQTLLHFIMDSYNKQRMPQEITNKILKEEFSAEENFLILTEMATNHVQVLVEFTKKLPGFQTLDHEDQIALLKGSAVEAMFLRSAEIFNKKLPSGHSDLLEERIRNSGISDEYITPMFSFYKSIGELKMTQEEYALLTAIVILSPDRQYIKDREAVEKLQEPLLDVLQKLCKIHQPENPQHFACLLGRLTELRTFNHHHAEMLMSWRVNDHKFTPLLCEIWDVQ
Experimental: FIG. 7 illustrates that coumarin 106 (“C1”, “AIC106”) acts as a potent FXR antagonist. The ability of C1 (AIC106) (10 μM and 30 μM) to inhibit activation of the FXR agonist […] (GW, 150 μM) was interrogated using a commercially available kit (Indigo Biosciences) versus the established natural FXR ligands TUDCA and UDCA (50 μM and 100 μM). Values are fold induction versus untreated controls; ****p<0.01 versus GW; **p<0.05 versus GW.
FIG. 23, panels A-H: FXR modulation enhances HLH-30 expression in human neuronal SH-SY5Y cells. Panel A) Effects of AIC106 on human FXR activity was determined in a mammalian one-hybrid based kit assay by quantifying changes in the luciferase activity of FXR ligand (GW4064, GW) induced treatment. […] Panel B) Protein expression of TFEB, cathepsin-D (CAT-D) and small heterodimer partner-1 (SHP-1) was determined by immunoblot in neuronal SH-SY5Y cells post-24 hours of treatment with AIC106 and DMSO-control. […] Autophagic flux in DMSO-control and AIC106 treated neuronal cells was determined by quantifying levels of autophagosome specific LC3-II protein both in presence and absence of autophagy inhibitor bafliomycin A1 (Baf A, 10 nM). […]
Antagonistic activity of the AIC106 on human FXR was determined using a commercially available FXR Human reporter assay kit (Cayman) according to the supplied manual. […] Luminescence was quantified. […]

SH-SY5Y cells = test: Immunoblot of TFEB, cathepsin-D and SHP-1 in SH-SY5Y cells; format: cell-based, human; details: 24 hours
Experimental: FIG. 23, panels A-H: FXR modulation enhances HLH-30 expression in human neuronal SH-SY5Y cells. Panel A) Effects of AIC106 on human FXR activity was determined in a mammalian one-hybrid based kit assay by quantifying changes in the luciferase activity of FXR ligand (GW4064, GW) induced treatment. [N=3 independent experiments (mean±SD). ****p<0.0001, by one-way ANOVA with Tukey's multiple comparisons test]. Panel B) Protein expression of TFEB, cathepsin-D (CAT-D) and small heterodimer partner-1 (SHP-1) was determined by immunoblot in neuronal SH-SY5Y cells post-24 hours of treatment with AIC106 and DMSO-control. Panel C) AIC106 enhances autophagic flux in neuronal SH-SY5Y cells. Autophagic flux in DMSO-control and AIC106 treated neuronal cells was determined by quantifying levels of autophagosome specific LC3-II protein both in presence and absence of autophagy inhibitor bafliomycin A1 (Baf A, 10 nM). Panel D) Relative fold change in the band intensity of LC3-II protein, normalized to loading control actin. Values are relative to DMSO-control. [N=3 independent experiments (mean±SD). *p<0.05 and ****p<0.0001, by one-way ANOVA with Tukey's multiple comparisons test]. Panel E) Effects of AIC106 treatment for 72 hours on basal TAU and phosphorylated-TAU in differentiated human neuronal SH-SHY5Y and heterozygous TSC1(+/−) mutant SH-SY5Y neuronal cells were quantitated by immunoblotting following total protein extraction. Relative fold change in the band intensity compared to SH-SY5Y control treatment for (panel F) total TAU and (panel G) phosphorylated-TAU, normalized to loading control GAPDH. [N=3 independent experiments (mean±SD). *p<0.05 and **p<0.01, by one-way ANOVA with Sidak's multiple comparisons test]. Panel H) AIC106 treatment improves viability and health of differentiated SH-SY5Y-TSC1(+/−) neuronal cells. Images were taken post-96 hours after treatment of differentiated neuronal cells with AIC106.
FIG. 30, panels A-B: FXR modulation enhances HLH-30 expression in human neuronal SH-SY5Y cell. Panel A) TFEB expression in SH-SY5Y cells was determined by immunoblot against TFEB in protein lysates collected after 24 hours of treatment with FXR agonist GW4064 and DMSO control. Panel B) Phosphorylated-TAU levels in SH-SY5Y-P301L-TAU cells was determined by immunoblot against (Ser202, Thr205) in protein lysates collected after 24 hours of treatment with known FXR antagonist Z-gugglsterone (z-GG), DY268 and DMSO control.

O=c1oc2c3c4c(cc2c2c1CCC2)CCCN4CCC3 [C1, 2,3,6,7,10,11-Hexahydro-1H,5H-cyclopenta(3,4)(1)benzopyrano(6,7,8-ij)quinolizin-12(9H)-one]
FXR activation elicited by the FXR agonist GW4064 (human FXR; C1 10 μM and 30 μM versus TUDCA and UDCA (FIG. 7)): significantly inhibited FXR activation
ligand-induced activation of human FXR (human FXR; FXR ligand GW4064 (FIG. 23, panel A)): prevented ligand-induced activation of the human FXR protein
TFEB protein expression (SH-SY5Y cells): increased expression TFEB protein
cathepsin D (CATD) protein expression (SH-SY5Y cells): enhanced protein expression of TFEB target gene cathepsin D
small heterodimer partner-1 (SHP-1) expression (SH-SY5Y cells): reduced expression of ligand-bound FXR target, small heterodimer partner-1
